Measured values published in US20230234943A1, “TREX1 INHIBITORS AND USES THEREOF” (Tempest Therapeutics, Inc., priority 2020, published 2023).

Each molecule was assayed against T1, Human TREX1 enzyme (amino acids 1-242) (Homo sapiens, UniProt Q9NSU2) (assay: Human TREX1 enzymatic assay with dsDNA native oligonucleotide (Picogreen fluorescence)). Settings: 2 mM dithiothreitol in assay buffer; 50 nM dsDNA oligonucleotide; 30 min preincubation at 25° C.; read-out: TREX1/Human + DTT IC50 AVG.
T1 construct: Human TREX1 enzyme (amino acids 1-242)
T1 sequence (Q9NSU2 1-242): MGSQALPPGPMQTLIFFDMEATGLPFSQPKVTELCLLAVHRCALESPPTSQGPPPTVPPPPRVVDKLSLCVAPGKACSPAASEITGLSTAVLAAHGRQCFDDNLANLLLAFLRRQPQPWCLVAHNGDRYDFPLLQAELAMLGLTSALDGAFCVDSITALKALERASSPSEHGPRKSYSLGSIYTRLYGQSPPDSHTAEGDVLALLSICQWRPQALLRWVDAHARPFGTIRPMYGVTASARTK
Type: biochemical
Description: Example A. Human TREX1 Enzymatic Assay with dsDNA Native Oligonucleotide
Human TREX1 enzyme (amino acids 1-242) was diluted in assay buffer (20 mM Tris pH 7.7, 5 mM MgCl2, 0.01% human serum albumin, 0.01% Brij™-35, 2 mM dithiothreitol) to a final concentration of 0.8 nM to 0.16 nM and added to a 96-well low-binding polypropylene plate. Test compounds were diluted in DMSO to 50× concentration (final DMSO concentration in reaction mixture of 2%) and added to the wells with a concentration ranging from 300 μM to 13 nM or 30 μM to 1.5 nM. The reaction mixtures were incubated for 30 minutes at 25° C. and a solution of annealed dsDNA oligonucleotide (5′-[…]-3′ and Comp: 5′-[…]-3′) was added to a final concentration of 50 nM. The reaction mixtures were incubated at 25° C. for 5-15 minutes and subsequently quenched by transferring part of the assay reaction to a solution of 100 mM ethylenediaminetetraacetic acid and 1:100 Picogreen™ (final concentration of […]) in a black plate with an opaque bottom. The fluorescence ([…]) was measured using a Molecular Devices SpectraMax plate reader. Wells containing oligonucleotide but no TREX1 enzyme were used as negative controls. Wells containing oligonucleotide, TREX1 enzyme, and DMSO were used as positive controls.
For `COc1cc(-c2nc3cc(NC(=O)c4ccncc4)ccc3n2C2(C)COC2)c(F)c(O)c1O` [Example 306, N-(2-(2-fluoro-3,4-dihydroxy-5-methoxyphenyl)-1-(3-methyloxetan-3-yl)-1H-benzo[d]imidazol-5-yl)isonicotinamide], the IC50 was ≤ 0.1 µM. In the case of `O=C(O)c1ccc(-c2nc3ccccc3n2C2COC2)c(F)c1O` [Example 141, 3-fluoro-2-hydroxy-4-(1-(oxetan-3-yl)-1H-benzo[d]imidazol-2-yl)benzoic acid], the IC50 is reported as > 100 µM. `COc1cc(-c2nc3ccccc3n2C(C)(C)C)c(C)c(O)c1O` [Example 227, 4-(1-(tert-butyl)-1H-benzo[d]imidazol-2-yl)-6-methoxy-3-methylbenzene-1,2-diol] showed an IC50 of 0.1 to 1 µM. `COc1cc(-c2nc3nc(N4CCC4)ccc3n2C2CCOC2)cc(O)c1O` (stereo not shown) [Example 292, 5-(5-(azetidin-1-yl)-1-(tetrahydrofuran-3-yl)-1H-imidazo[4,5-b]pyridin-2-yl)-3-methoxybenzene-1,2-diol] was tested, and the IC50 was 10 to 100 µM. `COc1cc(-c2nc3ncccc3n2C2COC2)cc(O)c1O` [Example 36, 3-methoxy-5-(1-(oxetan-3-yl)-1H-imidazo[4,5-b]pyridin-2-yl)benzene-1,2-diol] was tested, and the IC50 was > 100 µM. For `COc1cc(-c2nc3cc(NC(=O)CCO)ccc3n2C2(C)COC2)c(F)c(O)c1O` [Example 224, N-(2-(2-fluoro-3,4-dihydroxy-5-methoxyphenyl)-1-(3-methyloxetan-3-yl)-1H-benzo[d]imidazol-5-yl)-3-hydroxypropanamide], the IC50 was ≤ 0.1 µM. `COc1c(C)c(-c2nc3cc(N4CCC4)ccc3n2C2CCC2)c(F)c(O)c1O` [Example 200, 4-[5-(azetidin-1-yl)-1-cyclobutyl-1H-1,3-benzodiazol-2-yl]-3-fluoro-6-methoxy-5-methylbenzene-1,2-diol] showed an IC50 of 1 to 10 µM. `COc1cc(-c2nc3ccc(Nc4ccccc4)cc3n2C2(C)COC2)c(F)c(O)c1O` [Example 318, 3-fluoro-6-methoxy-4-(1-(3-methyloxetan-3-yl)-6-(phenylamino)-1H-benzo[d]imidazol-2-yl)benzene-1,2-diol] was tested, and the IC50 was 0.1 to 1 µM. In the case of `COc1cc(-c2nc3cc(N4CC(S(C)(=O)=O)C4)ccc3[nH]2)cc(O)c1O` [Example 139, 3-methoxy-5-(5-(3-(methylsulfonyl)azetidin-1-yl)-1H-benzo[d]imidazol-2-yl)benzene-1,2-diol], the IC50 is reported as 1 to 10 µM. In the case of `COc1cc(-c2nc3cc(Cl)c(Cl)cc3n2C2(C)COC2)cc(O)c1O` [Example 302, 5-(5,6-dichloro-1-(3-methyloxetan-3-yl)-1H-benzo[d]imidazol-2-yl)-3-methoxybenzene-1,2-diol], the IC50 is reported as 0.1 to 1 µM. With `COc1cc(-c2nc3cc(N4CCN(C5CC5)CC4)ccc3[nH]2)cc(O)c1O` [Example 274, 5-(5-(4-cyclopropylpiperazin-1-yl)-1H-benzo[d]imidazol-2-yl)-3-methoxybenzene-1,2-diol] the IC50 was > 100 µM. `COc1cc(-c2nc3ccncc3n2C)cc(O)c1O` [Example 44, 3-methoxy-5-(3-methyl-3H-imidazo[4,5-c]pyridin-2-yl)benzene-1,2-diol] was tested, and the IC50 was > 100 µM. `CNc1ccc2nc(-c3cc(OC)c(O)c(O)c3F)n(C3(C)COC3)c2c1` [Example 317, 3-fluoro-6-methoxy-4-(6-(methylamino)-1-(3-methyloxetan-3-yl)-1H-benzo[d]imidazol-2-yl)benzene-1,2-diol] gave an IC50 of 0.1 to 1 µM. In the case of `COc1cc(-c2nc3cc(N4CCN(C(=O)c5ccccc5C(C)(C)C)CC4)ccc3[nH]2)cc(O)c1O` [Example 133, (2-(tert-butyl)phenyl)(4-(2-(3,4-dihydroxy-5-methoxyphenyl)-1H-benzo[d]imidazol-5-yl)piperazin-1-yl)methanone], the IC50 is reported as > 100 µM. `COc1cc(-c2nc3cc(N4CCN(C(=O)c5ccccc5C(F)(F)F)CC4)ccc3[nH]2)cc(O)c1O` [Example 104, (4-(2-(3,4-dihydroxy-5-methoxyphenyl)-1H-benzo[d]imidazol-5-yl)piperazin-1-yl)(2-(trifluoromethyl)phenyl)methanone] was tested, and the IC50 was > 100 µM. Work on `COc1c(C)c(-c2nc3ccccc3n2C2CCC2)c(F)c(O)c1O` [Example 297, 4-(1-cyclobutyl-1H-benzo[d]imidazol-2-yl)-3-fluoro-6-methoxy-5-methylbenzene-1,2-diol] yielded an IC50 of 10 to 100 µM. `COc1cc(-c2nc3cc(C4CCCCC4)ccc3[nH]2)cc(O)c1O` [Example 75, 5-(5-cyclohexyl-1H-benzo[d]imidazol-2-yl)-3-methoxybenzene-1,2-diol] was tested, and the IC50 was > 100 µM. `COc1cc(-c2nc3ccc(N4CCC4)cc3n2C2COC2)cc(O)c1O` [Example 285, 5-(6-(azetidin-1-yl)-1-(oxetan-3-yl)-1H-benzo[d]imidazol-2-yl)-3-methoxybenzene-1,2-diol] was tested, and the IC50 was 1 to 10 µM. For `COc1cc(-c2nc3cc(C4CCNCC4)ccc3[nH]2)cc(O)c1O` [Example 58, 3-methoxy-5-(5-(piperidin-4-yl)-1H-benzo[d]imidazol-2-yl)benzene-1,2-diol], the IC50 was > 100 µM. Molecule `COc1cc(-c2nc3ccc(C(=O)NC(C)(C)C)cc3n2C2(C)COC2)c(F)c(O)c1O` [Example 243, N-tert-butyl-2-(2-fluoro-3,4-dihydroxy-5-methoxyphenyl)-1-(3-methyloxetan-3-yl)-1H-1,3-benzodiazole-6-carboxamide] has an IC50 of 0.1 to 1 µM. `COc1cc(-c2nc3cc(N4CCC4)ccc3[nH]2)cc(O)c1O` [Example 4, 5-(5-(azetidin-1-yl)-1H-benzo[d]imidazol-2-yl)-3-methoxybenzene-1,2-diol] showed an IC50 of 1 to 10 µM. `COc1cc(-c2nc3cc(N4CCN(C5CCCCC5)CC4)ccc3[nH]2)cc(O)c1O` [Example 57, 5-(5-(4-cyclohexylpiperazin-1-yl)-1H-benzo[d]imidazol-2-yl)-3-methoxybenzene-1,2-diol] was tested, and the IC50 was > 100 µM. For `COc1cc(-c2nc3cc(N4CCN(C(=O)c5ccccn5)CC4)ccc3[nH]2)cc(O)c1O` [Example 97, (4-(2-(3,4-dihydroxy-5-methoxyphenyl)-1H-benzo[d]imidazol-5-yl)piperazin-1-yl)(pyridin-2-yl)methanone], the IC50 was 10 to 100 µM. For `COc1cc(-c2nc3ccc(C(=O)NCC(F)(F)F)cc3n2C2(C)COC2)c(F)c(O)c1O` [Example 244, 2-(2-fluoro-3,4-dihydroxy-5-methoxyphenyl)-1-(3-methyloxetan-3-yl)-N-(2,2,2-trifluoroethyl)-1H-1,3-benzodiazole-6-carboxamide], the IC50 was ≤ 0.1 µM. With `COc1cc(-c2nc3ccncc3n2C)c(-c2cccnc2)c(O)c1O` [Example 93, 6-methoxy-4-(3-methyl-3H-imidazo[4,5-c]pyridin-2-yl)-3-(pyridin-3-yl)benzene-1,2-diol] the IC50 was > 100 µM. `COc1c(O)c(O)c(C)c(-c2nc3ccccc3n2C2CCC2)c1F` [Example 323, 4-(1-cyclobutyl-1H-benzo[d]imidazol-2-yl)-5-fluoro-6-methoxy-3-methylbenzene-1,2-diol] was tested, and the IC50 was 1 to 10 µM. For `COc1cc(-c2nc3ccccc3n2C2CCOC2)cc(O)c1O` (stereo not shown) [Example 13, 3-methoxy-5-(1-(tetrahydrofuran-3-yl)-1H-benzo[d]imidazol-2-yl)benzene-1,2-diol], the IC50 was 10 to 100 µM. With `COc1cc(-c2nc3ccccc3n2C2COC2)cc(C(=O)O)c1O` [Example 89, 2-hydroxy-3-methoxy-5-(1-(oxetan-3-yl)-1H-benzo[d]imidazol-2-yl)benzoic acid] the IC50 was > 100 µM. With `COc1cc(-c2nc3cc(N4CCN(c5ccccn5)CC4)ccc3[nH]2)cc(O)c1O` [Example 73, 3-methoxy-5-(5-(4-(pyridin-2-yl)piperazin-1-yl)-1H-benzo[d]imidazol-2-yl)benzene-1,2-diol] the IC50 was > 100 µM. Work on `COc1c(O)c(O)c(C)c(-c2nc3ccccc3[nH]2)c1F` [Example 64, 4-(1H-benzo[d]imidazol-2-yl)-5-fluoro-6-methoxy-3-methylbenzene-1,2-diol] yielded an IC50 of 10 to 100 µM. Molecule `COc1cc(-c2nc3ccncc3[nH]2)cc(O)c1O` [Example 12, 5-(3H-imidazo[4,5-c]pyridin-2-yl)-3-methoxybenzene-1,2-diol] has an IC50 of 10 to 100 µM. Work on `COc1cc(-c2nc3cc(N4CCN(C(=O)c5ccccc5)CC4)ccc3[nH]2)cc(O)c1O` [Example 31, (4-(2-(3,4-dihydroxy-5-methoxyphenyl)-1H-benzo[d]imidazol-5-yl)piperazin-1-yl)(phenyl)methanone] yielded an IC50 of 1 to 10 µM. For `COc1cc(-c2nc3ccccc3n2C2(C)CCOC2)c(C)c(O)c1O` (stereo not shown) [Example 158, 6-methoxy-3-methyl-4-(1-(3-methyltetrahydrofuran-3-yl)-1H-benzo[d]imidazol-2-yl)benzene-1,2-diol], the IC50 was 1 to 10 µM. In the case of `COc1cc(-c2nc3cc(N4CCN(C)C(C)(C)C4)ccc3[nH]2)cc(O)c1O` [Example 121, 3-methoxy-5-(5-(3,3,4-trimethylpiperazin-1-yl)-1H-benzo[d]imidazol-2-yl)benzene-1,2-diol], the IC50 is reported as > 100 µM.
